The text below walks through data of ChEMBL document CHEMBL1158923, “Cytotoxic metabolites from the sponge Ianthella basta collected in Papua New Guinea” (1990).

Values after ≈ are worked out from the molar mass of the structure shown.

The test has as its system L1210. Description: Cytotoxicity against mouse L1210 cells. The following applies: read-out: ED50 (the source's name). Format: functional.
As for `O=C1N/C=C/c2ccc(c(Br)c2)Oc2cc(cc(Br)c2O)CCNC(=O)/C(=N/O)Cc2cc(Br)c(c(Br)c2)Oc2cc(cc(Br)c2O)C/C1=N\O` [BASTADIN 4], the EC50 was found to be 5 µg/mL (≈ 4.92 µM).
On to `O=C1NCCc2cc(Br)c(O)c(c2)Oc2ccc(cc2Br)[C@H](O)CNC(=O)/C(=N/O)Cc2cc(Br)c(O)c(c2)Oc2c(Br)cc(cc2Br)C/C1=N\O` [BASTADIN 8], for which the EC50 came out at 5 µg/mL (≈ 4.83 µM).
Consider `O=C1NCCc2cc(Br)c(O)c(c2)Oc2c(Br)cc(cc2Br)C(O)CNC(=O)/C(=N/O)Cc2cc(Br)c(O)c(c2)Oc2ccc(cc2Br)C/C1=N\O` (stereo unspecified) [BASTADIN 9], for which the EC50 was 5 µg/mL (≈ 4.83 µM).
Take `CO/N=C1\Cc2cc(Br)c(OC)c(c2)Oc2c(Br)cc(cc2Br)C/C(=N\OC)C(=O)NCCc2cc(Br)c(OC)c(c2)Oc2ccc(cc2Br)/C=C/NC1=O` [TETRAMETHYLBASTADIN 4]: the EC50 was 5 µg/mL (≈ 4.66 µM).
Take `CO/N=C1/Cc2cc(Br)c(c(Br)c2)Oc2cc(cc(Br)c2OC)C/C(=N\OC)C(=O)NCC(O)c2ccc(c(Br)c2)Oc2cc(cc(Br)c2OC)CCNC1=O` (stereo unspecified) [TETRAMETHYLBASTADIN 8]: the EC50 amounted to 5 µg/mL (≈ 4.58 µM).
For `CO/N=C1\Cc2ccc(c(Br)c2)Oc2cc(cc(Br)c2OC)C/C(=N\OC)C(=O)NCC(O)c2cc(Br)c(c(Br)c2)Oc2cc(cc(Br)c2OC)CCNC1=O` (stereo unspecified) [TETRAMETHYLBASTADIN 9] the value was 5 µg/mL (≈ 4.58 µM).
